# Measured values reported in article PMC4112042, “Phase 1 dose-escalation study of the PARP inhibitor CEP-9722 as monotherapy or in combination with temozolomide in patients with solid tumors” (Cancer Chemotherapy and Pharmacology, 2014).
# Columns and labels:
# [1] = test system: patients with advanced solid tumors; assay: Phase 1 dose-escalation: safety, DLT and MTD
# Procedure: The study consisted of a screening period to determine patient eligibility, a 14-day cycle in which CEP-9722 was administered once daily as monotherapy, and subsequent 28-day cycles in which CEP-9722 and temozolomide were administered as combination therapy. In cycle 1, the first patient in each dosing cohort received CEP-9722 on days 1, 3, 4, and 5, while other patients in each cohort received CEP-9722 on days 1–5. In cycle 2, patients received CEP-9722 and temozolomide on days 1–5 (Supplemental Fig.). CEP-9722 was escalated from a starting dose of 150 mg/day up to 1,000 mg/day, and temozolomide was given at the dose of 150 mg/m^2/day at all dose levels of CEP-9722. Both CEP-9722 and temozolomide were administered in the fasted state.
# Patients were enrolled in cohorts of 3. Enrollment in the next cohort commenced when the third patient in the current cohort had completed day 28 of cycle 2 without a dose-limiting toxicity (DLT).
# Safety was assessed using adverse event data, clinical laboratory test results, vital signs measurement, ECG findings, physical examination findings, ECOG performance status, and concomitant medication usage.
# [2] = test system: advanced solid tumors; assay: Best tumor response according to RECIST 1.0; type: in vivo, human
# Procedure: Tumor assessment was performed within 4 weeks before the first dose of study drug and within the fourth week of cycle 2 using computed tomography or magnetic resonance imaging with contrast. In patients who continued treatment, tumor assessment was performed every 2 cycles and at the end of treatment visit, at the discretion of the investigator.
# [3] = Plasma pharmacokinetics of CEP-8983 after oral CEP-9722; type: in vivo, human; settings: patients
# Procedure: Pharmacokinetic serum samples were collected on day 1 of cycle 1 pre-dose and 0.5, 1, 2, 3, 4, 6, 8, 10, and 24 h post-dose; and on day 5 of cycle 1 and cycle 2 pre-dose, and 0.5, 1, 2, 3, 4, 6, 8, 10, 24, and 48 h post-dose. Urine samples were obtained on day 1 of cycle 1 during 4 intervals in the 24 h following study drug administration. Pharmacokinetic parameters (area under the plasma drug concentration–time curve from time 0 to infinity [AUC0–∞], AUC from time 0 to the time of the last measurable drug concentration [AUC0–t], AUC for 1 dosing interval [AUCτ] following multiple doses, maximum observed plasma concentration [C max], and time to maximum observed plasma concentration [T max]) were summarized at each visit (day 1 of cycle 1 and day 5 of cycles 1 and 2) using descriptive statistics.
# [4] = test system: PARP in peripheral blood mononuclear cells (PBMCs); assay: PAR ELISA in PBMCs (PARP inhibition, pharmacodynamics); type: in vivo, human
# Procedure: Pharmacodynamics were assessed by the measurement of PAR concentrations in PBMCs. PBMCs were isolated at site, and the frozen cell pellet was sent to a central laboratory (Trevigen Inc., Gaithersburg, MD, USA) for processing and analysis by PAR enzyme-linked immunosorbent assay (ELISA). Pharmacodynamic samples were collected on 2 consecutive days at screening visits and on days 1, 5 (pre-dose and 2 h [cycle 1 only], 6 h, and 24 h post-dose), and 8 (at the time of hematology laboratory testing). The PAR concentrations in the 2 screening samples and the day 1 pre-dose sample were averaged to provide a baseline value, and the percentage inhibition from baseline was calculated in the post-dose samples.
# [5] = test system: breast and ovarian cancer patients with BRCA mutations; design: method as in PMID 20609467, PMID 20609468; settings: monotherapy; cited from earlier work
# [6] = test system: patients with metastatic melanoma; settings: phase 2, metastatic melanoma, combination with temozolomide; cited from earlier work
# [7] = cycle 1, single-agent CEP-9722, total, all dose levels (N=26)
# [8] = cycles ≥2, CEP-9722 combined with temozolomide, 150 mg/day (N=3)
# [9] = cycles ≥2, CEP-9722 combined with temozolomide, 300 mg/day (N=6)
# [10] = cycles ≥2, CEP-9722 combined with temozolomide, 500 mg/day (N=3)
# [11] = cycles ≥2, CEP-9722 combined with temozolomide, 750 mg/day (N=11)
# [12] = cycles ≥2, CEP-9722 combined with temozolomide, 1,000 mg/day (N=3)
# [13] = cohort 1, 150 mg/day, 2 evaluated
# [14] = cohort 2, 300 mg/day, 6 evaluated
# [15] = cohort 3, 500 mg/day, 3 evaluated
# [16] = cohort 4, 750 mg/day, 9 evaluated
# [17] = cohort 5, 1,000 mg/day, 2 evaluated
smiles,measurement,setting,value
COc1cccc2[nH]c3c4c(c5c(c3c12)C(=O)N(CN1CCN(C)CC1)C5=O)CCC4 [CEP-9722],"Anorexia (treatment-related adverse event, all grades)",[1]; [7],3 (12) N patients (%)
same,"Asthenia (treatment-related adverse event, all grades)",[1]; [7],5 (19) N patients (%)
same,"Blood creatinine phosphokinase increased (treatment-related adverse event, all grades)",[1]; [7],2 (8) N patients (%)
same,"Constipation (treatment-related adverse event, all grades)",[1]; [7],2 (8) N patients (%)
same,"Diarrhea (treatment-related adverse event, all grades)",[1]; [7],7 (27) N patients (%)
same,"Fatigue (treatment-related adverse event, all grades)",[1]; [7],4 (15) N patients (%)
same,"Headache (treatment-related adverse event, all grades)",[1]; [7],10 (38) N patients (%)
same,"Nausea (treatment-related adverse event, all grades)",[1]; [7],12 (46) N patients (%)
same,"Vomiting (treatment-related adverse event, all grades)",[1]; [7],7 (27) N patients (%)
same,"Anemia (treatment-related adverse event, all grades)",[1]; [8],0 N patients (%)
same,"Anorexia (treatment-related adverse event, all grades)",[1]; [8],0 N patients (%)
same,"Aspartate aminotransferase increased (treatment-related adverse event, all grades)",[1]; [8],0 N patients (%)
same,"Asthenia (treatment-related adverse event, all grades)",[1]; [8],0 N patients (%)
same,"Constipation (treatment-related adverse event, all grades)",[1]; [8],0 N patients (%)
same,"Diarrhea (treatment-related adverse event, all grades)",[1]; [8],0 N patients (%)
same,"Dyspepsia (treatment-related adverse event, all grades)",[1]; [8],0 N patients (%)
same,"Fatigue (treatment-related adverse event, all grades)",[1]; [8],0 N patients (%)
same,"Gamma-glutamyltransferase increased (treatment-related adverse event, all grades)",[1]; [8],0 N patients (%)
same,"Anemia (treatment-related adverse event, all grades)",[1]; [9],0 N patients (%)
same,"Anorexia (treatment-related adverse event, all grades)",[1]; [9],1 (17) N patients (%)
same,"Aspartate aminotransferase increased (treatment-related adverse event, all grades)",[1]; [9],0 N patients (%)
same,"Asthenia (treatment-related adverse event, all grades)",[1]; [9],0 N patients (%)
same,"Constipation (treatment-related adverse event, all grades)",[1]; [9],0 N patients (%)
same,"Diarrhea (treatment-related adverse event, all grades)",[1]; [9],0 N patients (%)
same,"Dyspepsia (treatment-related adverse event, all grades)",[1]; [9],0 N patients (%)
same,"Gamma-glutamyltransferase increased (treatment-related adverse event, all grades)",[1]; [9],0 N patients (%)
same,"Anemia (treatment-related adverse event, all grades)",[1]; [10],1 (33) N patients (%)
same,"Anorexia (treatment-related adverse event, all grades)",[1]; [10],0 N patients (%)
same,"Aspartate aminotransferase increased (treatment-related adverse event, all grades)",[1]; [10],1 (33) N patients (%)
same,"Asthenia (treatment-related adverse event, all grades)",[1]; [10],2 (67) N patients (%)
same,"Constipation (treatment-related adverse event, all grades)",[1]; [10],0 N patients (%)
same,"Diarrhea (treatment-related adverse event, all grades)",[1]; [10],0 N patients (%)
same,"Dyspepsia (treatment-related adverse event, all grades)",[1]; [10],0 N patients (%)
same,"Fatigue (treatment-related adverse event, all grades)",[1]; [10],0 N patients (%)
same,"Gamma-glutamyltransferase increased (treatment-related adverse event, all grades)",[1]; [10],1 (33) N patients (%)
same,"Anemia (treatment-related adverse event, all grades)",[1]; [11],1 (9) N patients (%)
same,"Anorexia (treatment-related adverse event, all grades)",[1]; [11],1 (9) N patients (%)
same,"Aspartate aminotransferase increased (treatment-related adverse event, all grades)",[1]; [11],1 (9) N patients (%)
same,"Asthenia (treatment-related adverse event, all grades)",[1]; [11],4 (36) N patients (%)
same,"Diarrhea (treatment-related adverse event, all grades)",[1]; [11],3 (27) N patients (%)
same,"Dyspepsia (treatment-related adverse event, all grades)",[1]; [11],2 (18) N patients (%)
same,"Fatigue (treatment-related adverse event, all grades)",[1]; [11],4 (36) N patients (%)
same,"Gamma-glutamyltransferase increased (treatment-related adverse event, all grades)",[1]; [11],2 (18) N patients (%)
same,"Anemia (treatment-related adverse event, all grades)",[1]; [12],0 N patients (%)
same,"Aspartate aminotransferase increased (treatment-related adverse event, all grades)",[1]; [12],0 N patients (%)
same,"Asthenia (treatment-related adverse event, all grades)",[1]; [12],0 N patients (%)
same,"Constipation (treatment-related adverse event, all grades)",[1]; [12],1 (33) N patients (%)
same,"Dyspepsia (treatment-related adverse event, all grades)",[1]; [12],0 N patients (%)
same,"Fatigue (treatment-related adverse event, all grades)",[1]; [12],1 N patients (%)
same,"Gamma-glutamyltransferase increased (treatment-related adverse event, all grades)",[1]; [12],0 N patients (%)
same,"abdominal pain, adverse event","[1]; human, in vivo",35%
same,"anemia, adverse event","[1]; human, in vivo",23%
same,"anorexia, adverse event","[1]; human, in vivo",35%
same,"asthenia, adverse event","[1]; human, in vivo",42%
same,"constipation, adverse event","[1]; human, in vivo",50%
same,"diarrhea, adverse event","[1]; human, in vivo",42%
same,"fatigue, adverse event","[1]; human, in vivo",31%
same,grade 3–4 lymphopenia (laboratory),"[1]; human, in vivo",5 patients
same,"headache, adverse event","[1]; human, in vivo",50%
same,"nausea, adverse event","[1]; human, in vivo",77%
same,patients with treatment-related adverse events (TRAEs),"[1]; human, in vivo",24 (92 %) patients (%)
same,recommended phase 2 dose,"[1]; human, in vivo",750 mg/day
same,"vomiting, adverse event","[1]; human, in vivo",65%
same,"Abdominal pain (treatment-related adverse event, all grades)","[1]; human, in vivo, 14 day",2 (8) N patients (%)
same,central review of ECGs,[1]; in vivo,no clinically significant abnormalities
same,patients who withdrew due to adverse events,[1]; in vivo,Four patients
same,patients with dose delays due to hematological toxicity,[1]; in vivo,three patients
same,patients with grade 3–4 laboratory hematologic toxicities,[1]; in vivo,Six patients
same,maximum tolerated dose (MTD),[1]; with temozolomide 150 mg/m^2,750 mg/day
same,Partial response,[2]; [13],0 patients
same,Progressive disease,[2]; [13],2 patients
same,Stable disease,[2]; [13],0 patients
same,Partial response,[2]; [14],0 patients
same,Progressive disease,[2]; [14],5 patients
same,Stable disease,[2]; [14],1 patients
same,Partial response,[2]; [15],0 patients
same,Progressive disease,[2]; [15],1 patients
same,Stable disease,[2]; [15],2 patients
same,Partial response,[2]; [16],0 patients
same,Progressive disease,[2]; [16],8 patients
same,Stable disease,[2]; [16],1 patients
same,Partial response,[2]; [17],1 patients
same,Progressive disease,[2]; [17],1 patients
same,Stable disease,[2]; [17],0 patients
same,reduction in target lesions (RECIST) in the patient with partial response,"[2]; melanoma patient, 1,000 mg/day with temozolomide",58%
same,duration of partial response,"[2]; melanoma patient, 1,000 mg/day with temozolomide, first observed after 6 cycles",5.8 months
same,Progressive disease,"[2]; total, all cohorts, 22 evaluated",17 patients
same,conversion of CEP-9722 into its active form,[3],rapid
same,PAR concentrations in PBMCs relative to baseline,"[4]; 2 and 6 h post-dose, cycle 1, without temozolomide",reduction in PAR concentrations relative to baseline was observed
same,reduction in PAR concentrations in PBMCs,"[4]; 6 h post-dose, cycle 2, with temozolomide",less marked
same,inhibitory effects on PAR production,[4]; 24 h post-dose sample,lost
O=C(c1cc(Cc2n[nH]c(=O)c3ccccc23)ccc1F)N1CCN(C(=O)C2CC2)CC1 [olaparib],RECIST responses,[5],30–40%
CNCc1ccc(-c2[nH]c3cc(F)cc4c3c2CCNC4=O)cc1 [rucaparib],patients requiring a reduction in the dose of temozolomide due to enhanced myelosuppression,[6],approximately half
